# Values joined by “and” are separate entries in the source; they are usually repeats but may differ in a detail not shown here. Equal entries are not always repeated.
# What was measured:
# [1] = test system: patients with hypercholesterolemia at moderate cardiovascular (CV) risk; assay: Example 2: Phase 3 monotherapy trial mAb316P versus ezetimibe, lipid parameters; type: in vivo, human; conditions: for Lp(a) adjusted mean (SE) % change from baseline to week 24 / TGs adjusted mean (SE) % change from baseline to week 24: combined estimate; for LDL-C LS mean (SE) change from baseline (%): baseline to Week 24; for time-course of LDL-C lowering: week 4 to week 24, on-treatment; for between-group LS mean (SE) difference in LDL-C: week 12
# Text: Randomization was stratified according to DM status. […] Patients were followed for 8 weeks after the last visit of the Double Blind Treatment Period (DBTP).
# Double-blind treatment period (DBTP)—A randomized, double-blind double dummy study treatment period of 24 weeks. The first injection during the double-blind period was done at the site on the day of randomization (Week 0 [D1]-V3) and as soon as possible after the call to IVRS/IWRS for randomization into the study. The subsequent injections were done by the patient (self-injection) or another designated person (such as spouse, relative, etc.) at a patient-preferred location (home, etc.).
# The primary efficacy endpoint was the percent change in calculated LDL-C from baseline to week 24, which is defined as: 100×(calculated LDL-C value at Week 24−calculated LDL-C value at baseline)/calculated LDL-C value at baseline.
# Total-C, HDL-C, TG, Apo B, Apo A-1, and Lp (a) were directly measured. LDL-C was calculated using the Friedewald formula at all visits (except Week −1 and Follow Up visit). If TG values exceeded 400 mg/dL (4.52 mmol/L) then the central lab reflexively measured (via the beta quantification method) the LDL-C rather than calculating it. Non-HDL-C was calculated by subtracting HDL-C from the total-C. Ratio Apo B/Apo A-1 was calculated.
# The primary endpoint was assessed in the intent-to-treat (ITT) population, which included all randomized patients who had at least 1 calculated LDL-C value at baseline and at one of the planned time points from weeks 4 to 24.
# Missing data were accounted for by means of a mixed effect model with repeated measures (MMRM) approach (Siddiqui et al., MMRM vs. LOCF: a comprehensive comparison based on simulation study and 25 NDA datasets”, J Biopharm Stat, vol. 19, pp. 227-246 (2009); National Research Council, “The Prevention and Treatment of Missing Data in Clinical Trials” Panel on Handling Missing Data in Clinical Trials. Committee on National Statistics, Division of Behavioral and Social Sciences and Education. 2010. Washington, D.C.: The National Academies Press; Andersen et al., “On the practical application of mixed effects models for repeated measures to clinical trial data”, Pharm Stat., vol. 12, pp. 7-16 (2013)). For the ITT analysis, all available measurements at planned time points from weeks 4 to 24 (meaning week 4, 8, 12, 16, and 24), whatever their status on or off-treatment, were used in the MMRM. One MMRM model was used for LDL-C to provide least-squares means estimates and comparison between treatment arms at weeks 24 and 12. Further details on the model are given below. For the on-treatment analysis, all available on-treatment measurements (i.e. up to 21 days after last injection/3 days after last capsule, whichever comes first) at planned time points from weeks 4 to 24 were used in the MMRM model. In the same way as for the ITT analysis, one model was used to provide estimates and comparison at week 24 and week 12 for the on-treatment analysis. Continuous key secondary endpoints other than Lp(a) and triglycerides were analyzed in a similar fashion as the primary endpoint and description of the statistical methodology for secondary endpoints and subgroup analysis is provided below.
# Outputs from the model were the baseline-adjusted least-squares (LS) mean estimates at week 24 for both treatment groups with their corresponding standard error (SE). Appropriate contrast statement was used to test the difference between these estimates at the 2-sided 5% alpha level.
# To analyze the key secondary endpoints, a hierarchical procedure was used to control type I error and handle multiplicity. Secondary efficacy endpoints were tested sequentially using the order given above, in the intent-to-treat population.
# [2] = test system: patients with hypercholesterolemia at moderate cardiovascular (CV) risk; assay: Example 2: safety (TEAEs, laboratory parameters, vital signs)
# Text: The clinical laboratory data consisted of urinalysis and blood analysis, hematology (RBC count, red blood cell distribution width (RDW), reticulocyte count, hemoglobin, hematocrit, platelets, WBC count with differential blood count), standard chemistry (glucose, sodium, potassium, chloride, bicarbonate, calcium, phosphorous, urea nitrogen, creatinine, uric acid, total protein, LDH, albumin, γ Glutamyl Transferase [γGT]), Hepatitis C antibody, liver panel (ALT, AST, ALP, and total bilirubin), and CPK.
# Safety endpoints—Vital signs measurement: Vital signs included: HR, systolic and diastolic BP in sitting position.
# The safety analysis included all randomized and treated patients. Safety data were analyzed by descriptive statistics.
# [3] = Week 12, individual patient 6 who reported high blood glucose
# [4] = Week 24, individual patients (arbitrary numbers 1-5) who reported high blood glucose
substance,measurement,setting,value
"mAb316P: human anti-PCSK9 antibody; heavy chain SEQ ID NO:5, light chain SEQ ID NO:9; HCVR SEQ ID NO:1, LCVR SEQ ID NO:6",Apo A-1 LS mean (SE) % change from baseline to week 24,[1]; ITT,4.7 (1.6) %
same,Apo B LS mean (SE) % change from baseline to week 24,[1]; ITT,−36.7 (2.3) %
same,HDL-C LS mean (SE) % change from baseline to week 24,[1]; ITT,6.0 (1.9) %
same,Non-HDL-C LS mean (SE) % change from baseline to week 24,[1]; ITT,−40.6 (2.8) %
same,Total cholesterol LS mean (SE) % change from baseline to week 24,[1]; ITT,−29.6 (2.1) %
same,Lp(a) adjusted mean (SE) % change from baseline to week 24,[1]; ITT,−16.7 (3.7) %
same,TGs adjusted mean (SE) % change from baseline to week 24,[1]; ITT,−11.9 (4.2) %
same,LDL-C LS mean (SE) Week 24 change from baseline (%),"[1]; ITT, excluding post up-titration data from patients up-titrated having LDL-C <100 mg/dL",−44.3%
same,LS mean (SE) percent reductions in LDL-C from baseline to week 24,"[1]; ITT, given as reduction",47 (3) %
same,LDL-C reduction at week 12,"[1]; ITT, mAb316P 75 mg Q2W before up-titration, ezetimibe 10 mg daily",48 (3) % and 48%
same,Apo A-1 LS mean (SE) % change from baseline to week 24,[1]; On-treatment,5.3 (1.6) %
same,Apo B LS mean (SE) % change from baseline to week 24,[1]; On-treatment,−40.8 (1.9) %
same,HDL-C LS mean (SE) % change from baseline to week 24,[1]; On-treatment,8.0 (1.9) %
same,Non-HDL-C LS mean (SE) % change from baseline to week 24,[1]; On-treatment,−47.1 (1.9) %
same,Total cholesterol LS mean (SE) % change from baseline to week 24,[1]; On-treatment,−34.2 (1.6) %
same,Lp(a) adjusted mean (SE) % change from baseline to week 24,[1]; On-treatment,−17.7 (4.1) %
same,TGs adjusted mean (SE) % change from baseline to week 24,[1]; On-treatment,−14.7 (4.4) %
same,"LDL-C (on treatment), mean (SD)","[1]; Week 4, non-uptitrated at Week 12 (n = 32)",59.8 (13.6) mg/dL
same,"LDL-C (on treatment), mean (SD)","[1]; Week 4, uptitrated at Week 12 (n = 14)",83.5 (23.6) mg/dL
same,"LDL-C (on treatment), mean (SD)","[1]; Week 12, non-uptitrated at Week 12 (n = 32)",58.8 (16.8) mg/dL
same,"LDL-C (on treatment), mean (SD)","[1]; Week 12, uptitrated at Week 12 (n = 14)",78.3 (22.8) mg/dL
same,LDL-C LS mean difference (SE) % MAb316P versus ezetimibe,"[1]; Week 24, ITT, excluding post up-titration data from patients up-titrated having LDL-C <100 mg/dL",−28.7%
same,LDL-C LS mean difference (SE) % MAb316P versus ezetimibe,"[1]; Week 24, ITT, listed as MAb316P",−31.6%
same,"LDL-C (on treatment), mean (SD)","[1]; Week 24, non-uptitrated, 75 mg Q2W (n = 32)",57.8 (16.2) mg/dL
same,"LDL-C (on treatment), mean (SD)","[1]; Week 24, uptitrated to 150 mg Q2W at Week 12 (n = 14)",74.8 (19.5) mg/dL
same,LDL-C LS mean (SE) change from baseline (%),[1]; ITT,−47.2%
same,LDL-C LS mean (SE) change from baseline (%),[1]; On-treatment,−54.1%
same,estimated proportions of patients with LDL-C reductions ≧50% at week 12,"[1]; before up-titration, ITT",58%
same,proportions of patients with LDL-C reductions ≧50% at week 12,"[1]; before up-titration, on-treatment analysis",65%
same,reduction in Lp(a),"[1]; current study, discussion",18%
same,patients who achieved LDL-C<70 mg/dL at Week 8,"[1]; of the 46 mAb316P-treated patients in PK analyses, 75 mg Q2W",32 patients
same,LS mean (SE) LDL-C reductions from baseline to week 24,"[1]; on-treatment analysis, given as reduction",54 (2) %
same,LDL-C reduction at week 12,"[1]; on-treatment analysis, mAb316P 75 mg Q2W",53 (2) % and 53%
same,reduction in LDL-C at 12 weeks,"[1]; summary, mAb316P 75mg Q2W arm, monotherapy population",~50%
same,time-course of LDL-C lowering,[1],robust LDL-C reductions maintained from week 4 to end of the treatment period at week 24
same,time-course of LDL-C lowering,[1]; listed as MAb316P,sustained LDL-lowering effect from weeks 4 to 24
same,between-group LS mean (SE) difference in LDL-C,[1]; ITT,−28 (4) %
same,between-group LS mean (SE) difference in LDL-C,[1]; on-treatment analysis,−33 (3) %
same,Apo A-1 LS mean difference (SE) % MAb316P versus ezetimibe,"[1]; week 24, ITT",5.3 (2.2) %
same,Apo B LS mean difference (SE) % MAb316P versus ezetimibe,"[1]; week 24, ITT",−25.8 (3.3) %
same,HDL-C LS mean difference (SE) % MAb316P versus ezetimibe,"[1]; week 24, ITT",4.4 (2.7) %
same,LDL-C LS mean difference (SE) % MAb316P versus ezetimibe,"[1]; week 24, ITT",−32 (4) %
same,Lp(a) mean difference (SE) % MAb316P versus ezetimibe,"[1]; week 24, ITT",−4.4 (5.3) %
same,Non-HDL-C LS mean difference (SE) % MAb316P versus ezetimibe,"[1]; week 24, ITT",−25.5 (4.1) %
same,TGs mean difference (SE) % MAb316P versus ezetimibe,"[1]; week 24, ITT",−1.2 (5.9) %
same,Total cholesterol LS mean difference (SE) % MAb316P versus ezetimibe,"[1]; week 24, ITT",−18.7 (3.0) %
same,Apo A-1 LS mean difference (SE) % MAb316P versus ezetimibe,"[1]; week 24, On-treatment",6.1 (2.3) %
same,Apo B LS mean difference (SE) % MAb316P versus ezetimibe,"[1]; week 24, On-treatment",−29.2 (2.6) %
same,HDL-C LS mean difference (SE) % MAb316P versus ezetimibe,"[1]; week 24, On-treatment",6.2 (2.7) %
same,LDL-C LS mean difference (SE) % MAb316P versus ezetimibe,"[1]; week 24, On-treatment",−36.9%
same,Lp(a) mean difference (SE) % MAb316P versus ezetimibe,"[1]; week 24, On-treatment",−5.4 (5.7) %
same,Non-HDL-C LS mean difference (SE) % MAb316P versus ezetimibe,"[1]; week 24, On-treatment",−30.5 (2.7) %
same,TGs mean difference (SE) % MAb316P versus ezetimibe,"[1]; week 24, On-treatment",−1.9 (6.0) %
same,Total cholesterol LS mean difference (SE) % MAb316P versus ezetimibe,"[1]; week 24, On-treatment",−22.2 (2.3) %
same,Albumin ≦25 g/L,[2]; Laboratory parameters,0/51
same,Aspartate aminotransferase >3× ULN,[2]; Laboratory parameters,0/52
same,Creatine kinase >3× ULN,[2]; Laboratory parameters,0/51
same,Creatine kinase >10× ULN,[2]; Laboratory parameters,0/51
same,Glucose ≦70 mg/dL (3.9 mmol/L) and <LLN,[2]; Laboratory parameters,0/52
same,Patients with any TEAE,[2]; Safety Population,36 (69.2) n (%)
same,Patients with any TEAE leading to death,[2]; Safety Population,0 n (%)
same,Patients with any TEAE leading to treatment discontinuation,[2]; Safety Population,5 (9.6) n (%)
same,Patients with any treatment emergent SAE,[2]; Safety Population,1 (1.9) n (%)
same,Arthralgia,[2]; TEAE,3 (5.8) n (%)
same,Diarrhea,[2]; TEAE,6 (11.5) n (%)
same,Dizziness,[2]; TEAE,1 (1.9) n (%)
same,Headaches,[2]; TEAE,3 (5.8) n (%)
same,Influenza,[2]; TEAE,6 (11.5) n (%)
same,Nasopharyngitis,[2]; TEAE,12 (23.1) n (%)
same,Nausea,[2]; TEAE,3 (5.8) n (%)
same,Upper respiratory tract infection,[2]; TEAE,2 (3.8) n (%)
same,Urinary tract infection,[2]; TEAE,0 n (%)
same,back pain,[2]; TEAE,1 (1.9) n (%)
same,General disorders and administration site conditions,[2]; TEAEs of interest,5 (9.6) n (%)
same,Injection site reaction,[2]; TEAEs of interest,1 (1.9) n (%)
same,Muscle disorders,[2]; TEAEs of interest,2 (3.8) n (%)
same,Musculoskeletal and connective tissue disorders,[2]; TEAEs of interest,8 (15.4) n (%)
same,Musculoskeletal and connective tissue disorders NEC,[2]; TEAEs of interest,2 (3.8) n (%)
same,Musculoskeletal pain,[2]; TEAEs of interest,1 (1.9) n (%)
same,Myalgia,[2]; TEAEs of interest,2 (3.8) n (%)
same,muscle spasms,[2]; TEAEs of interest,0 n (%)
same,Fasting blood glucose,[2]; [3],135 mg/dL
same,HbA1c,[2]; [3],6.3%
same,Fasting blood glucose,[2]; [4],121 mg/dL and 112 mg/dL (2×) and 70 mg/dL and 183 mg/dL
same,HbA1c,[2]; [4],6.5% and 5.9% (2×) and 6.2% and 7.7%
same,Muscle-related AEs,[2]; discussion,4%
same,injection related AEs,[2]; disposable autoinjector,< 2%
same,Muscle-related TEAEs,[2]; in vivo,2 (4%) patients (%)
same,overall percentage of patients who experienced at least one TEAE,[2]; in vivo,69%
same,"patients with abnormalities in vital signs (blood pressure, heart rate)",[2]; in vivo,no patients
same,patients with blood glucose >126 mg/dL (7 mmol/L),[2]; in vivo,6 patients
same,patients who experienced at least 1 LDL-C value<25 mg/dL,[2]; mAb316P 75 mg Q2W,Three
same,tolerability and safety,[2]; overall conclusion,tolerability and safety comparable with ezetimibe
